Results published in patent US20230348422A1, “ALBICIDIN DERIVATIVES, THEIR USE AND SYNTHESIS” (TECHNISCHE UNIVERSITÄT BERLIN, priority 2020, published 2023).
In brackets after ≈: the same amount, converted by molar mass. Where two headings read alike, the source gives them in different places. Each block holds one compound with its values, some of them ahead of it.

Legend:
Test in all cases: Microdilution assay, MIC
Type in all cases: cell-based
[1] = system: B. subtilis DSM 10; conditions: Bacillus subtilis, read-out: MIC B. subtilis DSM 10
Procedure: (§1) The tests were performed using the micro dilution method.
(§2) The determination of MIC values was performed according to the ninth edition of the Approved Standard M07-A9 (CLSI. Methods for Dilution Antimicrobial Susceptibility Tests for Bacteria That Grow Aerobically; Approved Standard-Ninth Edition. CLSI document M07-A9. Wayne, PA: Clinical and Laboratory Standards Institute; 2012.)
(§3) The test was carried out for four different bacterial strains (E. coli DSM 1116 [gram negative], B. subtilis DSM 10 [gram positive], M. luteus DSM 1790 [gram positive], S. typhimurium TA100 [gram negative]). 20 μL of cryo stock of each strain were inoculated in 20 mL of LB media (Lysogeny broth: 10 g/L peptone, 5 g/L yeast extract, 5 g/L NaCl) followed by incubation over night at 37° C., 200 rpm. The test inoculum was adjusted by the 0.5 McFarland Standard (OD625 from 0.08 to 0.1). Within 15 min of preparation, the adjusted inoculum suspension was diluted in MHBII media (BBL TM Mueller-Hinton Broth II, Becton, Dickinson and Company, New Jersey/USA) so that each well contained approximately 5×10^5 CFU/mL in a final volume of 100 μL. 95 μL of the inoculum were applied per well and 5 μL of the (diluted) antibiotic substance were added.
(§4) Previously the dry antibiotic compounds were dissolved in DMSO (100%) with a concentration of 2560 μg/mL and the resulting stock solutions were further diluted in DMSO (100%). 5 μL of each antibiotic dilution were applied to the microdilution tray to reach final concentrations of 64 μg/mL to 0.008 μg/mL. One row of each well plate was left as a growth control without antibiotic substances and another row of the microdilution tray was used as sterility control (only MHB II-media). The antimicrobial effect of the solvent (DMSO) was tested by adding 5 μL DMSO to several wells without antibiotics. Purity check and cell titer control were performed according to International Standard M07-A9 on Mueller-Hinton II Agar (Mueller Hinton II Broth, 15 g/L agar-agar). Both microdilution trays and agar plates were incubated at 37° C. for 20 h and subsequently analyzed visually.
(§5) The potency of an antibiotic is determined by the minimum inhibitory concentration (MIC). Contrary to intuition, a particularly low value is equated with a high potency.

[2] = system: E. coli DSM 1116; conditions: Escherichia coli, read-out: MIC E. coli DSM 1116
Procedure: as §1, §2, §3, §4, §5

[3] = system: M. luteus DSM 1790; conditions: Micrococcus luteus, read-out: MIC M. luteus DSM 1790
Procedure: as §1, §2, §3, §4, §5

[4] = system: S. typhimurium TA 100; conditions: Salmonella enterica, 20 h, read-out: MIC S. typhimurium TA 100
Procedure: as §1, §2, §3, §4, §5

[5] = system: E. coli BW25113; conditions: Escherichia coli, read-out: MIC E. coli BW25113
[6] = system: M. phlei DSM 750; conditions: Mycolicibacterium phlei, read-out: MIC M. phlei DSM 750
[7] = DSM10, Gram-positive, MHBII media, 37° C., 20 h
[8] = DSM1116, Gram-negative, MHBII media, 37° C., 20 h
[9] = DSM1790, Gram-positive, MHBII media, 37° C., 20 h
[10] = Gram-negative, MHBII media, 37° C.
[11] = BW25113, Gram-negative, MHBII media, 37° C., 20 h
[12] = DSM750, Gram-positive, MHBII media, 37° C., 20 h

SMILES: COc1c(NC(=O)c2ccc(NC(=O)c3ccc(NC(=O)[C@H](Cc4cnn[nH]4)NC(=O)c4ccc(C#Cc5ccc(C#N)cc5)cc4)cc3)c(OC)c2O)ccc(C(=O)O)c1O [Compound 1]
MIC ([1]; DSM10, 20 h): 0.25 mg/L (≈ 0.299 µM) | MIC ([2]; DSM1116, 20 h): ≤ 0.016 mg/L | MIC ([3]; DSM1790, 20 h): 0.25 mg/L (≈ 0.299 µM) | MIC [4]: ≤ 0.016 mg/L | MIC ([5]; BW25113, 20 h): 0.031 mg/L (≈ 0.0371 µM) | MIC ([6]; DSM750, 20 h): 1 mg/L (≈ 1.2 µM)

SMILES: COc1ccc(C#Cc2ccc(C(=O)N[C@@H](Cc3cnn[nH]3)C(=O)Nc3ccc(C(=O)Nc4ccc(C(=O)Nc5ccc(C(=O)O)c(O)c5OC)c(O)c4OC)cc3)cc2)cc1 [Compound 2a]
MIC [1, 7]: 0.25 mg/L (≈ 0.298 µM) | MIC [2, 8]: 0.063 mg/L (≈ 0.075 µM) | MIC [3, 9]: 0.5 mg/L (≈ 0.595 µM) | MIC [4, 10]: ≤ 0.016 mg/L | MIC [5, 11]: 0.063 mg/L (≈ 0.075 µM) | MIC [6, 12]: 1 mg/L (≈ 1.19 µM)

SMILES: COc1c(NC(=O)c2ccc(NC(=O)c3ccc(NC(=O)[C@H](Cc4cnn[nH]4)NC(=O)c4ccc(/C=C/c5ccc(O)cc5)cc4)cc3)c(OC)c2O)ccc(C(=O)O)c1O [Compound 3]
MIC [1, 7]: 0.5 mg/L (≈ 0.604 µM) | MIC [2, 8]: 0.5 mg/L (≈ 0.604 µM) | MIC [3, 9]: 1 mg/L (≈ 1.21 µM) | MIC [4, 10]: 0.125 mg/L (≈ 0.151 µM) | MIC [5, 11]: 0.25 mg/L (≈ 0.302 µM) | MIC [6, 12]: 4 mg/L (≈ 4.83 µM)

SMILES: COc1ccc(C#Cc2ccc(C(=O)N[C@@H](Cc3cnn[nH]3)C(=O)Nc3ccc(C(=O)Nc4ccc(C(=O)Nc5ccc(C(=O)O)c(O)c5OC)c(O)c4OC)cc3)cc2)cn1 [Compound 4]
MIC [1, 7]: 0.25 mg/L (≈ 0.297 µM) | MIC [2, 8]: 0.063 mg/L (≈ 0.0749 µM) | MIC [3, 9]: 0.5 mg/L (≈ 0.595 µM) | MIC [4, 10]: ≤ 0.016 mg/L | MIC [5, 11]: 0.063 mg/L (≈ 0.0749 µM) | MIC [6, 12]: 1 mg/L (≈ 1.19 µM)

SMILES: COc1c(NC(=O)c2ccc(NC(=O)c3ccc(NC(=O)[C@H](Cc4cnn[nH]4)NC(=O)c4ccc(C#Cc5ccc(O)cc5)cc4)cc3)c(OC)c2O)ccc(C(=O)O)c1O [Compound 5]
MIC [1, 7]: 2 mg/L (≈ 2.42 µM) | MIC [2, 8]: 0.063 mg/L (≈ 0.0763 µM) | MIC [3, 9]: 2 mg/L (≈ 2.42 µM) | MIC [4, 10]: 0.031 mg/L (≈ 0.0375 µM) | MIC [5, 11]: 0.125 mg/L (≈ 0.151 µM) | MIC [6, 12]: 1 mg/L (≈ 1.21 µM)

SMILES: COc1c(NC(=O)c2ccc(NC(=O)c3ccc(NC(=O)[C@H](Cc4cnn[nH]4)NC(=O)c4ccc(C#Cc5ccc(F)cc5)cc4)cc3)c(OC)c2O)ccc(C(=O)O)c1O [Compound 6]
MIC [1, 7]: 0.25 mg/L (≈ 0.302 µM) | MIC [2, 8]: 0.031 mg/L (≈ 0.0374 µM) | MIC [3, 9]: 0.25 mg/L (≈ 0.302 µM) | MIC [4, 10]: ≤ 0.016 mg/L | MIC [5, 11]: 0.031 mg/L (≈ 0.0374 µM) | MIC [6, 12]: 0.5 mg/L (≈ 0.604 µM)

SMILES: C#Cc1ccc(C(=O)Nc2ccc(C(=O)N[C@@H](Cc3cnn[nH]3)C(=O)Nc3ccc(C(=O)Nc4ccc(C(=O)Nc5ccc(C(=O)O)c(O)c5OC)c(O)c4OC)cc3)cc2)cc1 [Compound 14]
MIC [1, 7]: 0.5 mg/L (≈ 0.586 µM) | MIC [2, 8]: 0.063 mg/L (≈ 0.0739 µM) | MIC [3, 9]: 0.5 mg/L (≈ 0.586 µM) | MIC [4, 10]: 0.063 mg/L (≈ 0.0739 µM) | MIC [5, 11]: 0.063 mg/L (≈ 0.0739 µM) | MIC [6, 12]: 1 mg/L (≈ 1.17 µM)

SMILES: COc1c(NC(=O)c2ccc(NC(=O)c3ccc(NC(=O)[C@H](Cc4cnn[nH]4)NC(=O)c4ccc(NC(=O)c5ccc(-c6nnn[nH]6)cc5)cc4)cc3)c(OC)c2O)ccc(C(=O)O)c1O [Compound 15]
MIC [1, 7]: 2 mg/L (≈ 2.23 µM) | MIC [2, 8]: 0.25 mg/L (≈ 0.279 µM) | MIC [3, 9]: 8 mg/L (≈ 8.92 µM) | MIC [4, 10]: 0.063 mg/L (≈ 0.0702 µM) | MIC [5, 11]: 0.25 mg/L (≈ 0.279 µM) | MIC [6, 12]: 8 mg/L (≈ 8.92 µM)

SMILES: COc1c(/C=C(\F)c2ccc(NC(=O)[C@H](Cc3cnn[nH]3)NC(=O)c3ccc(NC(=O)/C(C)=C/c4ccc(O)cc4)cc3)cc2)ccc(C(=O)Nc2ccc(C(=O)O)c(O)c2OC)c1O [Compound 16]
MIC ([1]; DSM10, 20 h): 0.031 mg/L (≈ 0.035 µM) | MIC ([2]; DSM1116, 20 h): 0.063 mg/L (≈ 0.0711 µM) | MIC ([3]; DSM1790, 20 h): 0.063 mg/L (≈ 0.0711 µM) | MIC [4]: 0.031 mg/L (≈ 0.035 µM) | MIC ([5]; BW25113, 20 h): 0.063 mg/L (≈ 0.0711 µM) | MIC ([6]; DSM750, 20 h): 0.25 mg/L (≈ 0.282 µM)

Next, values leading:

MIC [1, 7]: 2 mg/L (≈ 2.41 µM) | MIC [2, 8]: 0.5 mg/L (≈ 0.603 µM) | MIC [3, 9]: 2 mg/L (≈ 2.41 µM) | MIC [4, 10]: 0.125 mg/L (≈ 0.151 µM) | MIC [5, 11]: 0.25 mg/L (≈ 0.301 µM) | MIC [6, 12]: 4 mg/L (≈ 4.82 µM)
SMILES: COc1c(NC(=O)c2ccc(NC(=O)c3ccc(NC(=O)[C@H](Cc4cnn[nH]4)NC(=O)c4ccc(CCc5ccc(O)cc5)cc4)cc3)c(OC)c2O)ccc(C(=O)O)c1O [Compound 9]

MIC [1, 7]: 0.063 mg/L (≈ 0.0726 µM) | MIC [2, 8]: 0.125 mg/L (≈ 0.144 µM) | MIC [3, 9]: 0.125 mg/L (≈ 0.144 µM) | MIC [4, 10]: 0.063 mg/L (≈ 0.0726 µM) | MIC [5, 11]: 0.125 mg/L (≈ 0.144 µM) | MIC [6, 12]: 0.5 mg/L (≈ 0.576 µM)
SMILES: COc1c(/C=C/c2ccc(NC(=O)[C@H](Cc3cnn[nH]3)NC(=O)c3ccc(NC(=O)/C(C)=C/c4ccc(O)cc4)cc3)cc2)ccc(C(=O)Nc2ccc(C(=O)O)c(O)c2OC)c1O [Compound 17]

MIC [1, 7]: 0.063 mg/L (≈ 0.0728 µM) | MIC [2, 8]: 0.063 mg/L (≈ 0.0728 µM) | MIC [3, 9]: 0.25 mg/L (≈ 0.289 µM) | MIC [4, 10]: 0.016 mg/L (≈ 0.0185 µM) | MIC [5, 11]: 0.063 mg/L (≈ 0.0728 µM) | MIC [6, 12]: 0.5 mg/L (≈ 0.577 µM)
SMILES: COc1c(C#Cc2ccc(NC(=O)[C@H](Cc3cnn[nH]3)NC(=O)c3ccc(NC(=O)/C(C)=C/c4ccc(O)cc4)cc3)cc2)ccc(C(=O)Nc2ccc(C(=O)O)c(O)c2OC)c1O [Compound 18]

MIC [1, 7]: 2 mg/L (≈ 2.37 µM) | MIC [2, 8]: 0.5 mg/L (≈ 0.592 µM) | MIC [3, 9]: 4 mg/L (≈ 4.73 µM) | MIC [4, 10]: 0.125 mg/L (≈ 0.148 µM) | MIC [5, 11]: 0.25 mg/L (≈ 0.296 µM) | MIC [6, 12]: 8 mg/L (≈ 9.47 µM)
SMILES: COc1c(NC(=O)c2ccc(NC(=O)c3ccc(NC(=O)[C@H](Cc4cnn[nH]4)NC(=O)c4ccc(NC(=N)c5ccc(O)cc5)cc4)cn3)c(OC)c2O)ccc(C(=O)O)c1O [Compound 32]

MIC [1, 7]: ≥ 8 mg/L | MIC [2, 8]: ≥ 8 mg/L | MIC [3, 9]: ≥ 8 mg/L | MIC [4, 10]: ≥ 8 mg/L | MIC [5, 11]: ≥ 8 mg/L | MIC [6, 12]: ≥ 8 mg/L
SMILES: COc1c(NC(=O)c2ccc(NC(=O)c3ccc(NC(=O)[C@H](Cc4cnn[nH]4)NC(=O)c4ccc5[nH]c(-c6ccc(O)cc6)nc5c4)cn3)c(OC)c2O)ccc(C(=O)O)c1O [Compound 33]
